What all share (assay type): functional, cell-based
The nature of assay [1]: Cytotoxicity against human BGC cells after 5 days by MTT assay. As to conditions: 120 h. In general terms: Tetrazolium dyes change colour on reduction, which living cells bring about.
In another assay the test system is HL-60. The assay can be described thus: Cytotoxicity against human HL60 cells after 5 days by MTT assay. As to conditions: HL-60, 120 h.
Another assay concerns HCT-8. The assay can be described thus: Cytotoxicity against human HCT8 cells after 5 days by MTT assay. As to conditions: HCT-8, 120 h.
For another assay, the system named is Bel-7402. The assay can be described thus: Cytotoxicity against human Bel7402 cells after 5 days by MTT assay. As to conditions: Bel-7402, 120 h.

Two compounds from ChEMBL document CHEMBL1158259, “Tonkinecin, a novel bioactive annonaceous acetogenin from Uvaria tonkinesis” (J Nat Prod, 1996) can be followed below.

By IC50 is commonly meant the concentration that inhibits the measured activity by half. A high value points to weaker potency in that assay. For the compound `COc1cc([C@@H]2c3cc4c(cc3[C@@H](O[C@@H]3O[C@@H]5CO[C@@H](C)O[C@H]5[C@H](O)[C@H]3O)[C@H]3COC(=O)[C@H]23)OCO4)cc(OC)c1O` [ETOPOSIDE], the 50% inhibitory concentration (IC50) in assay [1] was found to be 6700 nM; in the assay with HL-60, 160 nM; in the assay with HCT-8 it was 6400 nM; in the assay with Bel-7402 it was 1900 nM.

On to `CCCCCCCCCCCC[C@@H](O)[C@H]1CC[C@H]([C@H](O)CCCCCCCCCCC[C@H](O)CCC2=C[C@H](C)OC2=O)O1` [TONKINECIN], for which the IC50 in assay [1] was 5100 nM; with HL-60, 520 nM; in the assay on HCT-8, 380 nM; in the assay with Bel-7402, 1500 nM.
